Assay results taken from patent publication US10004711B2, “Methods and compositions comprising 10-hydroxy-2-decenoic acid” (DSM IP ASSETS B.V., priority 2014, dated 2018).

Key:
[1] = test system: Neurons from the brain's hippocampus; test: Glutamate toxicity, cell death (propidium iodide); type: cell-based, rat; conditions: for Cell Death (% Control): glutamate 25 μM 24 h
Experimental: Neurons from the brain's hippocampus were derived from E17 pups and incubated for 7 days. The cells were pre-treated with QBA for 48 hours and subsequently challenged with glutamate (25 μM) for 24 hours. The cultures were then stained with propidium iodide, a marker of cell death, and with tetramethylrhodamine ethyl ester (TMRE), a marker for mitochondrial health. The fluorescence of each of these markers was then quantitated with a fluorimeter.

[2] = test system: Neurons from the brain's hippocampus; test: In vitro hypoxia cell health (calcein AM); type: cell-based, rat; conditions: for Cell Viability (% Control): hypoxia (<0.3% O2) 48 h
Experimental: Neurons from the brain's hippocampus were derived from E17 pups and incubated for 7 days. The neurons were then pre-treated with QBA for 48 hours and subsequently exposed to a hypoxia (<0.3% O2) for 48 hours. The cultures were stained with calcein AM, a marker of live cells, and with ethidium homodimer, a marker for dead cells. The fluorescence of each of these markers was then quantitated with a fluorimeter.

older rats = test: Elevated plus-maze, older rats fed QBA; type: in vivo, rat; conditions: for Time (s) in Open Arm: rats 18 months old, 5-min test
Experimental: The dose-response characteristics of 10-Hydroxy-2-decenoic acid's (QBA's) potential brain health benefits during aging were assessed for mood in older rats (18-20 months old).
Rats were fed QBA and subjected to an elevated plus-maze. The elevated plus-maze was elevated ˜85 cm above the floor and consisted of two open and two closed arms of the same size (50×10 cm). The closed arms were surrounded by walls 40 cm high, and the arms were constructed of black acrylic slabs that radiated from a central platform (10×10 cm) to form a plus sign. Each rat was placed in the central platform facing one of the open arms, and its behavior was recorded during a 5-min testing period with video capture software. More time spent in the open arms is an indication of reduced anxiety-like state. Rats were tested at 18 months old (N=11-13 per group).

older male rats = test: Learning acquisition, Barnes maze task; type: in vivo, rat; conditions: for Escape Latency: average of two trial runs
Experimental: The dose-response characteristics of 10-Hydroxy-2-decenoic acid's (QBA's) potential brain health benefits during aging were assessed for cognitive performance in older male rats (16-17 months old; N=10-12 per group). Rats were fed QBA for 4-5 months prior to behavioral assessment. Spatial learning and memory performance was tested using the Barnes circular maze which consists of a 4-ft diameter, gray circular platform raised 90 cm above the floor level with 20 holes, 10 cm in diameter, evenly spaced around the circumference. Animals were trained to locate a black escape tunnel beneath one of the holes in response to aversive light stimuli. The latency to enter the escape box in each of two trials across four trial days was recorded. Shorter latencies across and within trial days is an indication of better cognitive performance.

[3] = Body weight of aged male rats fed QBA and/or DHA (Example 8); type: in vivo, rat
Experimental: Aged male rats were fed 10-Hydroxy-2-decenoic acid (QBA) for approximately […] from 12-months to 20-months of age and the weight of rats was recorded.

[4] = QBA 10.00 μM pre-treatment 48 h
[5] = QBA 30.00 μM pre-treatment 48 h
[6] = QBA 100.00 μM pre-treatment 48 h

O=C(O)C=CCCCCCCCO [QBA, 10-Hydroxy-2-decenoic acid]
Cell Death (% Control) ([1]; QBA 0.10 μM pre-treatment 48 h): 92.52 % Control | Cell Death (% Control) ([1]; QBA 0.30 μM pre-treatment 48 h): 90.43 % Control | Cell Death (% Control) ([1]; QBA 1.00 μM pre-treatment 48 h): 88.78 % Control | Cell Death (% Control) ([1]; QBA 3.00 μM pre-treatment 48 h): 94.07 % Control | Cell Death (% Control) [1, 4]: 92.78 % Control | Cell Death (% Control) [1, 5]: 90.69 % Control | Cell Death (% Control) [1, 6]: 91.76 % Control | cell death after glutamate toxicity ([1]; summary of Table 2): decreased cell death | Cell Viability (% Control) ([2]; QBA 0.10 μM pre-treatment 48 h): 109.72 % Control | Cell Viability (% Control) ([2]; QBA 0.30 μM pre-treatment 48 h): 112.76 % Control | Cell Viability (% Control) ([2]; QBA 1.00 μM pre-treatment 48 h): 118.80 % Control | Cell Viability (% Control) ([2]; QBA 3.00 μM pre-treatment 48 h): 121.04 % Control | Cell Viability (% Control) [2, 4]: 117.65 % Control | Cell Viability (% Control) [2, 5]: 115.05 % Control | Cell Viability (% Control) [2, 6]: 111.82 % Control | cell health after low oxygen exposure ([2]; summary of Table 5): increased cell health | Time (s) in Open Arm (older rats; QBA 0.4 mg/kg/day): 48.5 s | Time (s) in Open Arm (older rats; QBA 4 mg/kg/day): 52.2 s | Time (s) in Open Arm (older rats; QBA 12 mg/kg/day): 37.1 s | anxiety as measured by the time in the open arms of the elevated plus maze (older rats; QBA 24 mg/kg/d, 15-18-month old male rats): decreased anxiety | Time (s) in Open Arm (older rats; QBA 24 mg/kg/day): 69.8 s | Escape Latency (older male rats; QBA 0.4 mg/kg/day, trial day 1): 98.8 s | Escape Latency (older male rats; QBA 0.4 mg/kg/day, trial day 2): 63.4 s | Escape Latency (older male rats; QBA 0.4 mg/kg/day, trial day 3): 63.4 s | Escape Latency (older male rats; QBA 0.4 mg/kg/day, trial day 4): 24.7 s | Escape Latency (older male rats; QBA 4 mg/kg/day, trial day 1): 106.7 s | Escape Latency (older male rats; QBA 4 mg/kg/day, trial day 2): 43.4 s | Escape Latency (older male rats; QBA 4 mg/kg/day, trial day 3): 43.4 s | Escape Latency (older male rats; QBA 4 mg/kg/day, trial day 4): 23.6 s | Escape Latency (older male rats; QBA 12 mg/kg/day, trial day 1): 79.3 s | Escape Latency (older male rats; QBA 12 mg/kg/day, trial day 2): 30.7 s | Escape Latency (older male rats; QBA 12 mg/kg/day, trial day 3): 30.7 s | Escape Latency (older male rats; QBA 12 mg/kg/day, trial day 4): 24.3 s | Escape Latency (older male rats; QBA 24 mg/kg/day, trial day 1): 109.8 s | Escape Latency (older male rats; QBA 24 mg/kg/day, trial day 2): 48.4 s | Escape Latency (older male rats; QBA 24 mg/kg/day, trial day 3): 48.4 s | Escape Latency (older male rats; QBA 24 mg/kg/day, trial day 4): 34.3 s | speed of learning acquisition (Barnes maze task) (older male rats; male rats aged 16-17 months): increased the speed of learning acquisition | Avg Wt ([3]; QBA 12 mg/kg/day, study day 0): 547.0 g | Avg Wt ([3]; QBA 12 mg/kg/day, study day 4): 560.9 g | Avg Wt ([3]; QBA 12 mg/kg/day, study day 11): 571.5 g | Avg Wt ([3]; QBA 12 mg/kg/day, study day 18): 580.1 g | Avg Wt ([3]; QBA 12 mg/kg/day, study day 25): 584.5 g | Avg Wt ([3]; QBA 12 mg/kg/day, study day 32): 590.8 g | Avg Wt ([3]; QBA 12 mg/kg/day, study day 39): 591.7 g | Avg Wt ([3]; QBA 12 mg/kg/day, study day 46): 594.3 g | Avg Wt ([3]; QBA 12 mg/kg/day, study day 53): 595.4 g | Avg Wt ([3]; QBA 12 mg/kg/day, study day 60): 598.7 g | Avg Wt ([3]; QBA 12 mg/kg/day, study day 67): 597.8 g | Avg Wt ([3]; QBA 12 mg/kg/day, study day 74): 603.7 g | Avg Wt ([3]; QBA 12 mg/kg/day, study day 81): 607.3 g | Avg Wt ([3]; QBA 12 mg/kg/day, study day 88): 608.5 g | Avg Wt ([3]; QBA 12 mg/kg/day, study day 95): 612.8 g | Avg Wt ([3]; QBA 12 mg/kg/day, study day 102): 614.5 g | Avg Wt ([3]; QBA 12 mg/kg/day, study day 109): 617.0 g | Avg Wt ([3]; QBA 12 mg/kg/day, study day 116): 617.2 g | Avg Wt ([3]; QBA 12 mg/kg/day, study day 123): 617.3 g | Avg Wt ([3]; QBA 12 mg/kg/day, study day 130): 616.9 g | Avg Wt ([3]; QBA 12 mg/kg/day, study day 137): 621.5 g | Avg Wt ([3]; QBA 12 mg/kg/day, study day 144): 619.1 g | Avg Wt ([3]; QBA 12 mg/kg/day, study day 151): 620.5 g | Avg Wt ([3]; QBA 24 mg/kg/day, study day 0): 551.5 g | Avg Wt ([3]; QBA 24 mg/kg/day, study day 4): 566.8 g | Avg Wt ([3]; QBA 24 mg/kg/day, study day 11): 573.4 g | Avg Wt ([3]; QBA 24 mg/kg/day, study day 18): 585.7 g | Avg Wt ([3]; QBA 24 mg/kg/day, study day 25): 593.1 g | Avg Wt ([3]; QBA 24 mg/kg/day, study day 32): 596.0 g | Avg Wt ([3]; QBA 24 mg/kg/day, study day 39): 599.7 g | Avg Wt ([3]; QBA 24 mg/kg/day, study day 46): 601.5 g | Avg Wt ([3]; QBA 24 mg/kg/day, study day 53): 601.8 g | Avg Wt ([3]; QBA 24 mg/kg/day, study day 60): 606.5 g | Avg Wt ([3]; QBA 24 mg/kg/day, study day 67): 607.5 g | Avg Wt ([3]; QBA 24 mg/kg/day, study day 74): 611.8 g | Avg Wt ([3]; QBA 24 mg/kg/day, study day 81): 614.5 g | Avg Wt ([3]; QBA 24 mg/kg/day, study day 88): 617.8 g | Avg Wt ([3]; QBA 24 mg/kg/day, study day 95): 620.2 g | Avg Wt ([3]; QBA 24 mg/kg/day, study day 102): 623.9 g | Avg Wt ([3]; QBA 24 mg/kg/day, study day 109): 627.4 g | Avg Wt ([3]; QBA 24 mg/kg/day, study day 116): 630.3 g | Avg Wt ([3]; QBA 24 mg/kg/day, study day 123): 629.2 g | Avg Wt ([3]; QBA 24 mg/kg/day, study day 130): 630.3 g | Avg Wt ([3]; QBA 24 mg/kg/day, study day 137): 633.5 g | Avg Wt ([3]; QBA 24 mg/kg/day, study day 144): 642.1 g | Avg Wt ([3]; QBA 24 mg/kg/day, study day 151): 638.6 g | body weight versus control, repeated measures ANOVA ([3]; all doses versus 0 mg/kg/day QBA or 0 mg/kg/day QBA+0.07% DHA): small but significant increase | body weight maintenance in aging male rats ([3]; summary of Table 14): helped to maintain healthy body weight
